According to publication PMC9241644, “Evaluation of Novel Quorum Sensing Inhibitors Targeting Auto-Inducer 2 (AI-2) for the Control of Avian Pathogenic Escherichia coli Infections in Chickens” (Microbiology Spectrum, 2022):

Columns and labels:
[1] = test system: Rif^R APEC O78; assay: Optimization of therapeutic dose of QSI-5 in drinking water, APEC-infected chickens; type: in vivo, Escherichia coli; conditions: for mortality reduction compared with PC group: PC normalized to 100%; for Mortality rate % (Nr.) / Average lesion severity, Lung / Average lesion severity, Liver / Average lesion severity, Heart / Average lesion severity, Airsac / Average APEC load, Kidney / Average APEC load, Lung / Average APEC load, Heart / Average APEC load, Liver: Table S2; for Mortality rate % (Nr.): PC 88.9 (8/9); for Average lesion severity, Lung: PC 1.11; for Average lesion severity, Liver: PC 2.11; for Average lesion severity, Heart: PC 2.78; for Average lesion severity, Airsac: PC 3.11; for Average APEC load, Kidney: PC 7.84; for Average APEC load, Lung: PC 7.93; for Average APEC load, Heart: PC 8.37; for Average APEC load, Liver: PC 8.46
Description: Chickens were monitored for clinical signs for 8 DPI. Any chickens moribund during this period were humanely euthanized and necropsied to determine bacterial load in the internal organs (liver, heart, lung, and kidney). Internal organs were aseptically collected, weighed and suspended in 1× PBS, the amount of PBS added was adjusted based on the organ size to make a suspension, the organ size and amount of PBS added were included in the final calculation of the CFU. The samples were homogenized, serially diluted 10-fold, plated on MacConkey agar (Remel, CA, USA) containing 50 μg/mL rifampicin, and incubated at 37°C for 24 h to determine the CFU/g. Pathological lesions severity in internal organs (pericarditis, perihepatitis, airsacculitis, and lung congestion) was scored as described previously ([21], [59]). At 8 DPI, the remaining chickens were humanely euthanized and necropsied, lesions were scored, and the APEC load was quantified in internal organs as described above.
One-day-old broiler chickens (n = 10/group) (Case Farms Ohio Hatchery, Strasburg, OH, USA) were used in this experiment. QSI-5 was synthesized in-house in the Fuchs laboratory (College of Pharmacy, OSU) via reductive amination reaction of commercially available 3-phenylpropionaldehyde with 1-(4-methylbenzyl) piperazine in the presence of acetic acid and sodium triacetoxyborohydride (Fig. S4). QSI-5 was administered daily in drinking water containing 0.05% DMSO at doses of 1 mg/L, 5 mg/L, 10 mg/L, and 20 mg/L for seven consecutive days starting from day 4 to day 10 of age. The amount of drinking water given daily was calculated based on the age of chickens (http://www.poultryhub.org/nutrition/nutrient-requirements/water-consumption-rates-for-chickens/). Chickens were infected with Rif^r APEC O78 (5 × 10^6 CFU/chicken) on day 5 as described above. The PC (0.05% DMSO treated and infected) and NC (non-treated and non-infected) control groups were included. The clinical signs and the daily mortality were recorded for 8 DPI. Dead chickens were necropsied, and APEC load was quantified in the internal organs as mentioned above. At 8 DPI, the remaining chickens were necropsied, lesions were scored, and the APEC load was quantified in internal organs as described above.

[2] = QSI-5 and SDM residue quantification in muscle, kidney and liver (LC-MS); type: in vivo, chickens
Procedure: The safety of QSI-5 and SDM was assessed by measuring the level of drug residue in the muscle, kidney, and liver using LC-MS (CCIC, MS&P Facility, OSU) as described before ([34]). As described above, chickens were administered with the optimized dose of QSI-5 (1 mg/L) and the therapeutic dose of SDM (495.323 mg/L) (0.05%) in drinking water daily for 7 days (starting from day 5 to day 11 of age). Tissue samples were collected individually from chickens treated with QSI-5 and SDM (five chickens per group) from experimental set up as described for floor trial at 2 DPLT, 5 DPLT, and […] (slaughter age). All samples were weighed and extracted at a 400 mg/mL ratio of tissue in the extraction solution (50:50 H2O: ACN). Samples were homogenized using a probe sonicator 20 times and centrifuged at 13,000 × g for 30 min. Sixty μL of the supernatant was transferred into glass vials and dried in a SpeedVac for 1.5 h, and then resuspended in 120 μL of 25:25:50 H2O:ACN:MeOH. Standard calibration, LC system, mass spectrometer, and drug target monitoring were performed as described above. Calibration standard curves for measuring the accumulation of QSI-5 and SDM in the kidney, liver, and muscle are shown in Fig. S6A and S6B.

[3] = based on the observations during dosing in drinking water
[4] = test system: APEC; set-up: method as in PMID 30270715; conditions: in vitro; cited from earlier work

Cc1ccc(CN2CCN(CCCc3ccccc3)CC2)cc1 [QSI-5]
mortality reduction compared with PC group ([1]; QSI-5 1 mg/L in drinking water 7 days, s/c APEC O78 5 × 10^6 CFU/chicken): 58% | mortality reduction compared with PC group ([1]; QSI-5 5 mg/L in drinking water 7 days): 25% | mortality reduction compared with PC group ([1]; QSI-5 10 mg/L in drinking water 7 days): 50% | mortality reduction compared with PC group ([1]; QSI-5 20 mg/L in drinking water 7 days): 25% | Mortality rate % (Nr.) ([1]; QSI-5 1 mg/L, (3/8)): 37.5% | Average lesion severity, Lung ([1]; QSI-5 1 mg/L): 0.33 | Average lesion severity, Liver ([1]; QSI-5 1 mg/L): 1.25 | Average lesion severity, Heart ([1]; QSI-5 1 mg/L): 1.63 | Average lesion severity, Airsac ([1]; QSI-5 1 mg/L): 1.38 | Average APEC load, Kidney ([1]; QSI-5 1 mg/L): 5.06 Log CFU/ g of tissue | Average APEC load, Lung ([1]; QSI-5 1 mg/L): 5.68 Log CFU/ g of tissue | Average APEC load, Heart ([1]; QSI-5 1 mg/L): 5.71 Log CFU/ g of tissue | Average APEC load, Liver ([1]; QSI-5 1 mg/L): 5.33 Log CFU/ g of tissue | Mortality rate % (Nr.) ([1]; QSI-5 5 mg/L, (6/9)): 66.6% | Average lesion severity, Lung ([1]; QSI-5 5 mg/L): 0.38 | Average lesion severity, Liver ([1]; QSI-5 5 mg/L): 1.33 | Average lesion severity, Heart ([1]; QSI-5 5 mg/L): 1.89 | Average lesion severity, Airsac ([1]; QSI-5 5 mg/L): 1.33 | Average APEC load, Kidney ([1]; QSI-5 5 mg/L): 6.10 Log CFU/ g of tissue | Average APEC load, Lung ([1]; QSI-5 5 mg/L): 5.86 Log CFU/ g of tissue | Average APEC load, Heart ([1]; QSI-5 5 mg/L): 6.09 Log CFU/ g of tissue | Average APEC load, Liver ([1]; QSI-5 5 mg/L): 6.03 Log CFU/ g of tissue | Mortality rate % (Nr.) ([1]; QSI-5 10 mg/L, (4/9)): 44.4% | Average lesion severity, Lung ([1]; QSI-5 10 mg/L): 0.78 | Average lesion severity, Liver ([1]; QSI-5 10 mg/L): 2.11 | Average lesion severity, Heart ([1]; QSI-5 10 mg/L): 2.44 | Average lesion severity, Airsac ([1]; QSI-5 10 mg/L): 2.33 | Average APEC load, Kidney ([1]; QSI-5 10 mg/L): 6.20 Log CFU/ g of tissue | Average APEC load, Lung ([1]; QSI-5 10 mg/L): 6.37 Log CFU/ g of tissue | Average APEC load, Heart ([1]; QSI-5 10 mg/L): 7.32 Log CFU/ g of tissue | Average APEC load, Liver ([1]; QSI-5 10 mg/L): 5.84 Log CFU/ g of tissue | Mortality rate % (Nr.) ([1]; QSI-5 20 mg/L, (6/9)): 66.6% | Average lesion severity, Lung ([1]; QSI-5 20 mg/L): 0.44 | Average lesion severity, Liver ([1]; QSI-5 20 mg/L): 1.22 | Average lesion severity, Heart ([1]; QSI-5 20 mg/L): 2.11 | Average lesion severity, Airsac ([1]; QSI-5 20 mg/L): 1.67 | Average APEC load, Kidney ([1]; QSI-5 20 mg/L): 6.56 Log CFU/ g of tissue | Average APEC load, Lung ([1]; QSI-5 20 mg/L): 6.58 Log CFU/ g of tissue | Average APEC load, Heart ([1]; QSI-5 20 mg/L): 6.69 Log CFU/ g of tissue | Average APEC load, Liver ([1]; QSI-5 20 mg/L): 6.53 Log CFU/ g of tissue | Drug accumulation, Kidney (ppm± SD) ([2]; 2 DPLT): 0.0 ± 0.0 ppm | Drug accumulation, Liver (ppm± SD) ([2]; 2 DPLT): 0.0 ± 0.0 ppm | Drug accumulation, Muscle (ppm± SD) ([2]; 2 DPLT, drinking water 7 days (QSI-5 1 mg/L, SDM 495.323 mg/L)): 0.0 ± 0.0 ppm | Drug accumulation, Kidney (ppm± SD) ([2]; 5 DPLT): 0.0 ± 0.0 ppm | Drug accumulation, Liver (ppm± SD) ([2]; 5 DPLT): 0.0 ± 0.0 ppm | Drug accumulation, Muscle (ppm± SD) ([2]; 5 DPLT): 0.0 ± 0.0 ppm | Drug accumulation, Kidney (ppm± SD) ([2]; 35 DPLT (slaughter age)): 0.0 ± 0.0 ppm | Drug accumulation, Liver (ppm± SD) ([2]; 35 DPLT (slaughter age)): 0.0 ± 0.0 ppm | Drug accumulation, Muscle (ppm± SD) ([2]; 35 DPLT (slaughter age)): 0.0 ± 0.0 ppm | aqueous solubility [3]: good aqueous solubility | effect on the growth of APEC [4]: does not affect the growth of APEC
